A word on the Kd: it is a measure of binding affinity in units of concentration. Higher therefore signals a looser complex.

The structures appear in SMILES notation.

One data set deals with CYP2E1 (Homo sapiens, UniProt P05181). Briefly: incubation with recombinant human CYP2E1, metabolites by LC–MS/MS. Format: biochemical.
In the next data set the target is T1, PPARα (Homo sapiens, UniProt Q07869).
T1 sequence (Q07869 1-468): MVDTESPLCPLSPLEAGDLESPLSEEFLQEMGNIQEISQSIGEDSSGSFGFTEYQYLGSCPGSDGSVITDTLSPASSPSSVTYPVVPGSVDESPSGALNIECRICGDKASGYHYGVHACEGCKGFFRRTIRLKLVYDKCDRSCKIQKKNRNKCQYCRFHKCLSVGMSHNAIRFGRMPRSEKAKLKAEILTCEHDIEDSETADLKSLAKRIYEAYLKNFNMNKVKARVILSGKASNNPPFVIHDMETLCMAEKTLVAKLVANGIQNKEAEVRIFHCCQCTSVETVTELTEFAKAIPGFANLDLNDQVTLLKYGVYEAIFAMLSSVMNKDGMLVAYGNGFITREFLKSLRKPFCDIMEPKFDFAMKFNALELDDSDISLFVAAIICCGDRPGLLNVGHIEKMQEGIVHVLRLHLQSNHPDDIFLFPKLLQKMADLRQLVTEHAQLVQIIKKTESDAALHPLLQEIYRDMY
Kind of data set: SPR. Format: binding.

Chain of CYP2E1 (P05181 whole entry): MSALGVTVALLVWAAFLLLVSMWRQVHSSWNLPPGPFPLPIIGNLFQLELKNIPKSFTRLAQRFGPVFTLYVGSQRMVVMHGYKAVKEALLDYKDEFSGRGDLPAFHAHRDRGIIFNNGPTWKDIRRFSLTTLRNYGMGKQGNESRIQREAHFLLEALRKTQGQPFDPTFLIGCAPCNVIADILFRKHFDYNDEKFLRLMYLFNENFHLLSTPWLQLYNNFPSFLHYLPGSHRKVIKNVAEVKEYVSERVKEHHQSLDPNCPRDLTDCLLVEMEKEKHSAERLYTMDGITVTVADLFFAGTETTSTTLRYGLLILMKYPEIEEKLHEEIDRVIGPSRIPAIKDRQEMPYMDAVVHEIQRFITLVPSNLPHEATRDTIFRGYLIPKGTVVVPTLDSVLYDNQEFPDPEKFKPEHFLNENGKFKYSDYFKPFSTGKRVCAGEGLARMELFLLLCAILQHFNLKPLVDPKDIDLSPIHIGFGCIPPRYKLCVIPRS

With `CCCCC/C=C\C/C=C\C/C=C\C/C=C\CCCC(=O)O` [AA, arachidonic acid], the “incubation with recombinant human CYP2E1, metabolites by LC-MS/MS” value (“incubation with recombinant human CYP2E1” for short) at CYP2E1 is “All the compounds were metabolized by recombinant CYP2E1 and their metabolites identified by LC–MS/MS”. Besides, binding on PPARα was characterised by a dissociation constant (Kd) of 16.1 µM.

For `CC/C=C\C/C=C\C/C=C\C/C=C\C/C=C\C/C=C\CCC(=O)O` [DHA, docosahexaenoic acid], on CYP2E1, the “incubation with recombinant human CYP2E1” value was “All the compounds were metabolized by recombinant CYP2E1 and their metabolites identified by LC–MS/MS”. This compound returned a Kd at PPARα of 14.3 µM.

In the case of `CCCCC/C=C\C/C=C\CCCCCCCC(=O)O` [LCA, 9,12-linoleic acid], the “incubation with recombinant human CYP2E1” value on CYP2E1 is “metabolic sites on LCA by recombinant CYP2E1 protein were at C-6 to C-10, C-16, and C-17”. In addition, the Kd on PPARα stood at 23.8 µM.

For the origin of these results see PMC9136617 (Acta Pharmaceutica Sinica. B, 2022).
